Columns and labels:
[1] = Light fastness of recorded image (carbon arc fade meter); assay type: physicochemical; details: carbon arc 40 hours; for Light fastness Judgment: blue scale grade JIS L-0841; for Light fastness (ΔE): color difference before/after
Source text: (§1) By using an ink-jet printer (Trade name: PICTY80L, made by NEC KK), ink-jet printing was done on five types of recording materials: a plain paper(Printer Paper A4, TLB5A4S, made by Canon KK), a special paper A(Color BJ Paper LC101, made by Canon KK), a special paper B(Color Image Jet Coat Paper STX73A4, made by Sharp KK), a glossy film A(Special Glossy Film MJA4SP6, made by Seiko-Epson KK), and a glossy film B(Color BJ Photo Sheet Film CA-101, made by Canon KK). The test results on hue, vividness, light fastness, and water fastness in recorded images pictured by the water-based yellow ink composition ( X=H, M=Na in Formula (1)) of the present invention are shown in Table 2.
(§2) An ink composition for the comparative example was prepared same as in the above (A), but the ink composition contained C.I. Acid Yellow 17, an azo dye generally applied for an ink-jet yellow dye in place of the dye composition in Table 1 and was adjusted to coincide in optical density with the yellow ink of the present invention. The test results on hue, vividness, light fastness, and water fastness in recorded images pictured by the ink composition for the comparative example also are shown in Table 2. Hue and vividness in the color sample of JNC's JAPAN COLOR are shown in Table 2 (The paper of the color sample Japan Color Standard Paper a paper). (C) Assessment of recorded image
A carbon arc fade meter ( by Suga Testing Machine Co.) was used to irradiate carbon arc on the recorded image for 40 hours. Grade was determined based on blue scale grade as prescribed in JIS L-0841. Color difference (ΔE) between before and after the irradiation also was determined by using the above colorimetry.

[2] = Water fastness of recorded image (stirred in water); assay type: physicochemical; details: stirred in water 2 min, dried; for Water fastness Judgment: JIS fading gray scale; for Water fastness (ΔE): color difference before/after
Source text: as §1, §2
A recorded material was set in a beaker filled with water, stirred for 2 min and dried. The color fading of the recorded image after treatment was determined based on the JIS fading gray scale. Color difference (ΔE) between before and after the treatment also was determined by using the above colorimetry.

Light fastness Judgment ([1]; Glossy film A): Grade3-4
Light fastness (ΔE) ([1]; Glossy film A): 17.6
Light fastness Judgment ([1]; Glossy film B): Grade 2
Light fastness (ΔE) ([1]; Glossy film B): 64.6
Light fastness Judgment ([1]; Plain paper): Grade4-5
Light fastness (ΔE) ([1]; Plain paper): 4.5
Light fastness Judgment ([1]; Special paper A): Grade 3
Light fastness (ΔE) ([1]; Special paper A): 33.5
Light fastness Judgment ([1]; Special paper B): Grade 3
Light fastness (ΔE) ([1]; Special paper B): 29.4
Water fastness Judgment ([2]; Glossy film A): Grade4-5
Water fastness (ΔE) ([2]; Glossy film A): 6.2
Water fastness Judgment ([2]; Glossy film B): Grade4-5
Water fastness (ΔE) ([2]; Glossy film B): 4.7
Water fastness Judgment ([2]; Plain paper): Grade 1
Water fastness (ΔE) ([2]; Plain paper): 76.8
Water fastness Judgment ([2]; Special paper A): Grade 3
Water fastness (ΔE) ([2]; Special paper A): 15.7
Water fastness Judgment ([2]; Special paper B): Grade 2
Water fastness (ΔE) ([2]; Special paper B): 39.6
Substance: C.I. Acid Yellow 17 [Comparative example 1]
